# Biological target: recombinant human integrin αVβ6 (Homo sapiens (Human), UniProt P06756+P18564)
# Assay: Solid phase integrin αVβ6 binding assay
# Settings: inhibition of recombinant TGFβ1 LAP binding to coated integrin, IC50 presented in four ranges, read-out: αvβ6 Inhibition IC50 (nM) - range
# Method in brief: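 Plates coated with recombinant human αVβ6 (2 μg/mL) and blocked; compounds competed with TGFβ1 LAP (0.67 μg/mL) in Mn2+ (0.5 mM)/BSA/sucrose TBS for 2 h at 25° C. Bound LAP detected by biotin anti-LAP and peroxidase-streptavidin; IC50 by four-parameter logistic fit.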
# Sequence of recombinant human integrin αVβ6 (P06756 31-992): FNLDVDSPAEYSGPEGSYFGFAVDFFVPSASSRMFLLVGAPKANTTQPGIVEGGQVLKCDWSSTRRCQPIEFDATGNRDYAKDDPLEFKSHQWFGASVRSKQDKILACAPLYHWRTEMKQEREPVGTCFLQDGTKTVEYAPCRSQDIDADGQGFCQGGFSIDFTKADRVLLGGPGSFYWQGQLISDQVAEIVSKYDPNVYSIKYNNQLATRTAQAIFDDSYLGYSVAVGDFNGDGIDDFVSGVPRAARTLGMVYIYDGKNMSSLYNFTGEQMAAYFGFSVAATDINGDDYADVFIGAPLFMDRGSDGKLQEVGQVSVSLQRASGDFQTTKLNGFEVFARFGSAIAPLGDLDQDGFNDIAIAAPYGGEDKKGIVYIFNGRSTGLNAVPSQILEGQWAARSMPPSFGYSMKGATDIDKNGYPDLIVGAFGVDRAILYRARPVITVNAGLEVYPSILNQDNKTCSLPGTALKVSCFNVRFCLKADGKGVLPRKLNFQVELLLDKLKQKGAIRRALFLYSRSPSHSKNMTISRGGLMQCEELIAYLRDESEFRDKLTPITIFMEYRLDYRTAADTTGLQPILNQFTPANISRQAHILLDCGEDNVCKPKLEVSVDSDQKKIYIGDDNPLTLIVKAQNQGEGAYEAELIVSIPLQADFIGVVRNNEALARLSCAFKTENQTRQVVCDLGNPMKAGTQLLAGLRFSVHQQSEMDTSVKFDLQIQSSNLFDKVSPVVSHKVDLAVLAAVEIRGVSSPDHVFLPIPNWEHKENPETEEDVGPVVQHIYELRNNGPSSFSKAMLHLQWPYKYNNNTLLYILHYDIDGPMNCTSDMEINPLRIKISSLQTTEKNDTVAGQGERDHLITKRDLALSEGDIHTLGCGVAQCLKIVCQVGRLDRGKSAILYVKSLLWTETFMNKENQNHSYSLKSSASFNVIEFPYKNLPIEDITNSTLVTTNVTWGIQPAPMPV
# Sequence of recombinant human integrin αVβ6 (P18564 22-707): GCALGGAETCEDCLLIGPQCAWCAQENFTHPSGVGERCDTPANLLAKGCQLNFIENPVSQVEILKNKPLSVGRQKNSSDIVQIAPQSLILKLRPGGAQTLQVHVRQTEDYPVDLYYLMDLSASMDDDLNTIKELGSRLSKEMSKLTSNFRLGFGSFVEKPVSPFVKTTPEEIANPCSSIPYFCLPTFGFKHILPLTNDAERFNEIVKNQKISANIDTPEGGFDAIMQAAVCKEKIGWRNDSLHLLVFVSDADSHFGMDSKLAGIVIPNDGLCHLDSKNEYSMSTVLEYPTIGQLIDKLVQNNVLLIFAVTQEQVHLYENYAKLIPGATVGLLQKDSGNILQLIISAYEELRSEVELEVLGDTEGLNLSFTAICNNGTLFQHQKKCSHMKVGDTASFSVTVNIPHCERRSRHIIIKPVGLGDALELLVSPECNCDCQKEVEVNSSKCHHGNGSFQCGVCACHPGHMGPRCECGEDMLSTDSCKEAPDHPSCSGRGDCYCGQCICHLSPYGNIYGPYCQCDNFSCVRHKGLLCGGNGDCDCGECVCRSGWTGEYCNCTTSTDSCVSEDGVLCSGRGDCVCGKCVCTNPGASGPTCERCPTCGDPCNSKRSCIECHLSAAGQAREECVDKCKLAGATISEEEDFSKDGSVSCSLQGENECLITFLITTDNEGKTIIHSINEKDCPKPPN
row,Compound,IC50 [nM]
1,"O=C(O)[C@H](CCN(CCCCc1ccc2c(n1)NCCC2)CC(CO)CO)Nc1ncnc2ccccc12 [Compound 130, (S)-4-((3-hydroxy-2-(hydroxymethyl)propyl) (4-(5,6,7,8-tetrahydro-1,8-naphthyridin-2-yl)butyl)amino)-2-(quinazolin-4-ylamino) butanoic Acid]",< 50
2,"O=C(O)[C@H](CCN(CCCCc1ccc2c(n1)NCCC2)CCC(F)F)Nc1ncc(C(F)(F)F)cn1 [Compound 132, (S)-4-((3,3-difluoropropyl) (4-(5,6,7,8-tetrahydro-1,8-naphthyridin-2-yl)butyl)amino)-2-((5-(trifluoromethyl)pyrimidin-2-yl)amino) butanoic Acid]",50 to 250
3,"O=C(O)[C@H](CCN(CCCCc1ccc2c(n1)NCCC2)CCC(F)F)Nc1ccnc(C(F)(F)F)n1 [Compound 134, (S)-4-((3,3-difluoropropyl) (4-(5,6,7,8-tetrahydro-1,8-naphthyridin-2-yl)butyl)amino)-2-((2-(trifluoromethyl)pyrimidin-4-yl)amino) butanoic Acid]",50 to 250
4,"Cn1ncc2c(N[C@@H](CCN(CCCF)CCCCc3ccc4c(n3)NCCC4)C(=O)O)ncnc21 [Compound 136, (S)-4-((3-fluoropropyl) (4-(5,6,7,8-tetrahydro-1,8-naphthyridin-2-yl)butyl)amino)-2-((1-methyl-1H-pyrazolo[3,4-d]pyrimidin-4-yl)amino) butanoic Acid]",< 50
5,"O=C(O)[C@H](CCN(CCCF)CCCCc1ccc2c(n1)NCCC2)Nc1ncc(C(F)(F)F)cn1 [Compound 137, (S)-4-((3-fluoropropyl) (4-(5,6,7,8-tetrahydro-1,8-naphthyridin-2-yl)butyl)amino)-2-((5-(trifluoromethyl)pyrimidin-2-yl)amino) butanoic Acid]",< 50
6,"O=C(O)[C@H](CCN(CCCCc1ccc2c(n1)NCCC2)CCOc1ccc(F)cc1)Nc1ncc(C(F)(F)F)cn1 [Compound 139, (S)-4-((2-(4-fluorophenoxy)ethyl) (4-(5,6,7,8-tetrahydro-1,8-naphthyridin-2-yl)butyl)amino)-2-((5-(trifluoromethyl)pyrimidin-2-yl)amino) butanoic Acid]",< 50
7,"O=C(O)[C@H](CCN(CCCCc1ccc2c(n1)NCCC2)CCOc1ccc(F)cc1)Nc1ncnc2[nH]ncc12 [Compound 143, (S)-2-((1H-pyrazolo[3,4-d]pyrimidin-4-yl)amino)-4-((2-(4-fluorophenoxy)ethyl) (4-(5,6,7,8-tetrahydro-1,8-naphthyridin-2-yl)butyl)amino) butanoic Acid]",50 to 250
8,"CN(C)C(=O)CN(CCCCc1ccc2c(n1)NCCC2)CC[C@H](Nc1ccnc(C(F)(F)F)n1)C(=O)O [Compound 145, (S)-4-((2-(dimethylamino)-2-oxoethyl) (4-(5,6,7,8-tetrahydro-1,8-naphthyridin-2-yl)butyl)amino)-2-((2-(trifluoromethyl)pyrimidin-4-yl)amino) butanoic Acid]",< 50

# Next, values leading:
row,IC50 [nM],Compound
1,< 50,"O=C(O)[C@H](CCN(CCCCc1ccc2c(n1)NCCC2)CC1CCO1)Nc1ncnc2ccccc12 (stereo partly drawn) [Compound 129, (2S)-4-((oxetan-2-ylmethyl) (4-(5,6,7,8-tetrahydro-1,8-naphthyridin-2-yl)butyl)amino)-2-(quinazolin-4-ylamino) butanoic Acid]"
2,50 to 250,"Cn1ncc2c(N[C@@H](CCN(CCCCc3ccc4c(n3)NCCC4)CCC(F)F)C(=O)O)ncnc21 [Compound 133, (S)-4-((3,3-difluoropropyl) (4-(5,6,7,8-tetrahydro-1,8-naphthyridin-2-yl)butyl)amino)-2-((1-methyl-1H-pyrazolo[3,4-d]pyrimidin-4-yl)amino) butanoic Acid]"
3,< 50,"N#Cc1cnc(N[C@@H](CCN(CCCCc2ccc3c(n2)NCCC3)CCOc2ccc(F)cc2)C(=O)O)nc1 [Compound 138, (S)-2-((5-cyanopyrimidin-2-yl)amino)-4-((2-(4-fluorophenoxy)ethyl) (4-(5,6,7,8-tetrahydro-1,8-naphthyridin-2-yl)butyl)amino) butanoic Acid]"
4,< 50,"CN(C)C(=O)CN(CCCCc1ccc2c(n1)NCCC2)CC[C@H](Nc1ncnc2c1cnn2C)C(=O)O [Compound 140, (S)-4-((2-(dimethylamino)-2-oxoethyl) (4-(5,6,7,8-tetrahydro-1,8-naphthyridin-2-yl)butyl)amino)-2-((1-methyl-1H-pyrazolo[3,4-d]pyrimidin-4-yl)amino) butanoic Acid]"
5,50 to 250,"CN(C)C(=O)CN(CCCCc1ccc2c(n1)NCCC2)CC[C@H](Nc1ncc(C(F)(F)F)cn1)C(=O)O [Compound 141, (S)-4-((2-(dimethylamino)-2-oxoethyl) (4-(5,6,7,8-tetrahydro-1,8-naphthyridin-2-yl)butyl)amino)-2-((5-(trifluoromethyl)pyrimidin-2-yl)amino) butanoic Acid]"
6,> 1000,"O=C(O)[C@H](CCN(CCCCc1ccc2c(n1)NCCC2)CC(F)F)Nc1cc(-c2ccccc2)ncn1 [Compound 142, (S)-4-((2,2-difluoroethyl) (4-(5,6,7,8-tetrahydro-1,8-naphthyridin-2-yl)butyl)amino)-2-((6-phenylpyrimidin-4-yl)amino) butanoic Acid]"
7,50 to 250,"O=C(O)[C@H](CCN(CCCCc1ccc2c(n1)NCCC2)CCOc1ccc(F)cc1)Nc1ncc(Br)cn1 [Compound 144, (S)-2-((5-bromopyrimidin-2-yl)amino)-4-((2-(4-fluorophenoxy)ethyl) (4-(5,6,7,8-tetrahydro-1,8-naphthyridin-2-yl)butyl)amino) butanoic Acid]"
8,> 1000,"O=C(O)[C@H](CCN(CCCCc1ccc2c(n1)NCCC2)CC(F)F)Nc1ncc(C2CC2)cn1 [Compound 146, (S)-2-((5-cyclopropylpyrimidin-2-yl)amino)-4-((2,2-difluoroethyl) (4-(5,6,7,8-tetrahydro-1,8-naphthyridin-2-yl)butyl)amino) butanoic Acid]"
9,50 to 250,"O=C(O)[C@H](CCN(CCCCc1ccc2c(n1)NCCC2)CC1(F)COC1)Nc1ncnc2ccccc12 [Compound 147, (S)-4-(((3-fluorooxetan-3-yl)methyl) (4-(5,6,7,8-tetrahydro-1,8-naphthyridin-2-yl)butyl)amino)-2-(quinazolin-4-ylamino) butanoic Acid]"

# — US10793564B2, “Amino acid compounds and methods of use” (Pliant Therapeutics, Inc., priority 2018, dated 2020)
